According to patent US11667809B2, “Adhesion promoters and compositions for containers and other articles” (SWIMC LLC, priority 2017, dated 2023):
Read-outs that look alike come from different tables or passages of the source.

Experiments:
human estrogen receptor [1] = biological target: T1, human estrogen receptor (Homo sapiens, UniProt P03372)
T1 sequence (P03372 1-595): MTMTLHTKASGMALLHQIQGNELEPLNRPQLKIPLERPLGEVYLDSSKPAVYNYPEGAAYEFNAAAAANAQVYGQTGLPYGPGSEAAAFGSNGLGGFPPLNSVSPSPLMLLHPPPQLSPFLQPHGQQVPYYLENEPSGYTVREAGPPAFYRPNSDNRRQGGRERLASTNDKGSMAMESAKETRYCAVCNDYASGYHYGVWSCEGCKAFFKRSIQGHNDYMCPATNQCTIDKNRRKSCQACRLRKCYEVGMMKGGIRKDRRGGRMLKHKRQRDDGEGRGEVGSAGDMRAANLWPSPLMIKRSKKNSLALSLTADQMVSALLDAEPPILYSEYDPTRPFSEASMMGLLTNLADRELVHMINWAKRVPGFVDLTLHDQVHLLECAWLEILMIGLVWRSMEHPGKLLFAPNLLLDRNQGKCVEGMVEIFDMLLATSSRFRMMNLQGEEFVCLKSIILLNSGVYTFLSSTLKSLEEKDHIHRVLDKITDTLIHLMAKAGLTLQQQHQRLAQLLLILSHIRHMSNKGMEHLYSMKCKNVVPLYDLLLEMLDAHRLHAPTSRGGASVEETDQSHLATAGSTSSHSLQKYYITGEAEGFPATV
Description: (§1) The MCF-7 assay uses MCF-7, clone WS8, cells to measure whether and to what extent a substance induces cell proliferation via estrogen receptor (ER)-mediated pathways.

human estrogen receptor [2] = biological target: T1, human estrogen receptor; assay: in vitro estrogenic activity assay correlated to the MCF-7 cell proliferation assay; settings: suitable in vitro assay whose results are directly correlated to the MCF-7 assay
Description: as §1

Cc1cc(Cc2cc(C)cc(C(C)(C)C)c2O)c(O)c(C(C)(C)C)c1 [2,2′-methylenebis(4-methyl-6-t-butylphenol)]
estrogenic activity (human estrogen receptor [1]): do not exhibit appreciable estrogenic activity

CC(C)(C)c1cc(Cc2cc(C(C)(C)C)c(O)c(C(C)(C)C)c2)cc(C(C)(C)C)c1O [4,4′-methylenebis(2,6-di-t-butylphenol)]
estrogenic activity (human estrogen receptor [1]): do not exhibit appreciable estrogenic activity

Cc1cc(Cc2cc(C)c(O)c(C)c2)cc(C)c1O [4,4′-methylenebis(2,6-dimethylphenol)]
estrogenic activity (human estrogen receptor [2]): do not exhibit appreciable estrogenic activity

CC(C)(C)c1cc(O)c(C(C)(C)C)cc1O [2,5-di-t-butylhydroquinone]
estrogenic activity (human estrogen receptor [1]): do not exhibit appreciable estrogenic activity

CCCC(c1cc(C(C)(C)C)c(O)cc1C)c1cc(C(C)(C)C)c(O)cc1C [4,4′butylidenebis(2-t-butyl-5-methylphenol)]
estrogenic activity (human estrogen receptor [2]): do not exhibit appreciable estrogenic activity
